Measured values taken from PubChem BioAssay AID1963984 (Molecular Pharmacology Branch, DTP, NCI, 2024).

Test system: 233499-124-R-J3-PDC spheroids with HUVEC/MSC, viability
Experiment: Anticancer human tumor 233499-124-R-J3-PDC patient-derived colon adenocarcinoma cell line growth inhibition [PI3K]
Conditions: for IC50: curve of first compound; for viability, T/C: stronger effect = lower value
Summary of the method: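 Complex 3D spheroids (cancer cells + endothelial HUVEC + mesenchymal stem cells); drug pairs of targeted agent x inavolisib/alpelisib/duvelisib/copanlisib; half-log series from ~Cmax, max 10 microM if Cmax unknown; endpoint viability.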

[1] = second compound 0.0316 µM, first compound 0.0316 µM
[2] = second compound 0.0316 µM, first compound 0.1 µM
[3] = second compound 0.0316 µM, first compound 0.316 µM
[4] = second compound 0.0316 µM, first compound 1 µM
[5] = second compound 0.0316 µM, first compound 3.16 µM
[6] = second compound 0.0316 µM, first compound 10 µM
[7] = second compound 0.1 µM, first compound 0.0316 µM
[8] = second compound 0.1 µM, first compound 0.1 µM
[9] = second compound 0.1 µM, first compound 0.316 µM
[10] = second compound 0.1 µM, first compound 1 µM
[11] = second compound 0.1 µM, first compound 3.16 µM
[12] = second compound 0.1 µM, first compound 10 µM
[13] = second compound 0.316 µM, first compound 0.0316 µM
[14] = second compound 0.316 µM, first compound 0.1 µM
[15] = second compound 0.316 µM, first compound 0.316 µM
[16] = second compound 0.316 µM, first compound 1 µM
[17] = second compound 0.316 µM, first compound 3.16 µM
[18] = second compound 0.316 µM, first compound 10 µM
[19] = second compound 1 µM, first compound 0.0316 µM
[20] = second compound 1 µM, first compound 0.1 µM
[21] = second compound 1 µM, first compound 0.316 µM
[22] = second compound 1 µM, first compound 1 µM
[23] = second compound 1 µM, first compound 3.16 µM
[24] = second compound 1 µM, first compound 10 µM
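Further: spheroids exposed to agents for seven days before readout.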
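Wherever viability, T/C is given: percent viability relative to DMSO vehicle control taken as 100%.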

## CC1(C)CCC(Nc2ncc(C(F)(F)F)c(-c3c[nH]c4c(P(C)(C)=O)c(C#N)ccc34)n2)CN1 (stereo unspecified) + CC(Nc1ccc2c(c1)OCCn1cc(N3C(=O)OCC3C(F)F)nc1-2)C(N)=O
Second compound 0.00316 µM
  IC50: 73.8 nM
Second compound 0.01 µM
  IC50: < 31.6 nM
Second compound 0.0316 µM
  IC50: 94 nM
Second compound 0.1 µM
  IC50: < 31.6 nM
Second compound 0.316 µM
  IC50: 84.3 nM
Second compound 1 µM
  IC50: < 31.6 nM
Second compound 0.00316 µM, first compound 0.0316 µM
  viability, T/C: 55.3%
Second compound 0.00316 µM, first compound 0.1 µM
  viability, T/C: 58.7%
Second compound 0.00316 µM, first compound 0.316 µM
  viability, T/C: 24.6%
Second compound 0.00316 µM, first compound 1 µM
  viability, T/C: 19.3%
Second compound 0.00316 µM, first compound 3.16 µM
  viability, T/C: 34.4%
Second compound 0.00316 µM, first compound 10 µM
  viability, T/C: 1.55%
Second compound 0.01 µM, first compound 0.0316 µM
  viability, T/C: 39.4%
Second compound 0.01 µM, first compound 0.1 µM
  viability, T/C: 42.9%
Second compound 0.01 µM, first compound 0.316 µM
  viability, T/C: 34.9%
Second compound 0.01 µM, first compound 1 µM
  viability, T/C: 22.1%
Second compound 0.01 µM, first compound 3.16 µM
  viability, T/C: 22.7%
Second compound 0.01 µM, first compound 10 µM
  viability, T/C: 1.45%
[1]
  viability, T/C: 79.9%
[2]
  viability, T/C: 44.4%
[3]
  viability, T/C: 31.4%
[4]
  viability, T/C: 17%
[5]
  viability, T/C: 17.1%
[6]
  viability, T/C: 1.3%
[7]
  viability, T/C: 36.5%
[8]
  viability, T/C: 40.7%
[9]
  viability, T/C: 24.5%
[10]
  viability, T/C: 13.8%
[11]
  viability, T/C: 18.9%
[12]
  viability, T/C: 4.74%
[13]
  viability, T/C: 67.4%
[14]
  viability, T/C: 43%
[15]
  viability, T/C: 34.3%
[16]
  viability, T/C: 19.4%
[17]
  viability, T/C: 20.7%
[18]
  viability, T/C: 2.38%
[19]
  viability, T/C: 49%
[20]
  viability, T/C: 29.3%
[21]
  viability, T/C: 28.6%
[22]
  viability, T/C: 18.6%
[23]
  viability, T/C: 25.9%
[24]
  viability, T/C: 0.86%

## CNC(=O)c1ccc(N2C(=S)N(c3ccc(C#N)c(C(F)(F)F)c3)C(=O)C2(C)C)cc1F + CC(Nc1ncnc2nc[nH]c12)c1cc2cccc(Cl)c2c(=O)n1-c1ccccc1
Second compound 0.0316 µM
  IC50: > 10000 nM
Second compound 0.1 µM
  IC50: > 10000 nM
Second compound 0.316 µM
  IC50: > 10000 nM
Second compound 1 µM
  IC50: > 10000 nM
Second compound 3.16 µM
  IC50: > 10000 nM
Second compound 10 µM
  IC50: > 10000 nM
[1]
  viability, T/C: 106%
[2]
  viability, T/C: 92.8%
[3]
  viability, T/C: 88.1%
[4]
  viability, T/C: 94.5%
[5]
  viability, T/C: 79.7%
[6]
  viability, T/C: 63.6%
[7]
  viability, T/C: 101%
[8]
  viability, T/C: 81%
[9]
  viability, T/C: 96.5%
[10]
  viability, T/C: 76.3%
[11]
  viability, T/C: 80.8%
[12]
  viability, T/C: 83.9%
[13]
  viability, T/C: 102%
[14]
  viability, T/C: 90.1%
[15]
  viability, T/C: 92.6%
[16]
  viability, T/C: 80.5%
[17]
  viability, T/C: 71.7%
[18]
  viability, T/C: 52.6%
[19]
  viability, T/C: 81.5%
[20]
  viability, T/C: 95.7%
[21]
  viability, T/C: 96.5%
[22]
  viability, T/C: 77.4%
[23]
  viability, T/C: 78.2%
[24]
  viability, T/C: 68.3%
Second compound 3.16 µM, first compound 0.0316 µM
  viability, T/C: 107%
Second compound 3.16 µM, first compound 0.1 µM
  viability, T/C: 76.6%
Second compound 3.16 µM, first compound 0.316 µM
  viability, T/C: 104%
Second compound 3.16 µM, first compound 1 µM
  viability, T/C: 87.6%
Second compound 3.16 µM, first compound 3.16 µM
  viability, T/C: 80.8%
Second compound 3.16 µM, first compound 10 µM
  viability, T/C: 68.4%
Second compound 10 µM, first compound 0.0316 µM
  viability, T/C: 85.7%
Second compound 10 µM, first compound 0.1 µM
  viability, T/C: 97.3%
Second compound 10 µM, first compound 0.316 µM
  viability, T/C: 93.3%
Second compound 10 µM, first compound 1 µM
  viability, T/C: 95.6%
Second compound 10 µM, first compound 3.16 µM
  viability, T/C: 60.9%
Second compound 10 µM, first compound 10 µM
  viability, T/C: 58.3%

## Cn1cnc2c(F)c(Nc3ccc(Br)cc3Cl)c(C(=O)NOCCO)cc21 + CC(Nc1ncnc2nc[nH]c12)c1cc2cccc(Cl)c2c(=O)n1-c1ccccc1
Second compound 0.0316 µM
  IC50: 600 nM
Second compound 0.1 µM
  IC50: 603 nM
Second compound 0.316 µM
  IC50: 511 nM
Second compound 1 µM
  IC50: 281 nM
Second compound 3.16 µM
  IC50: 275 nM
Second compound 10 µM
  IC50: 455 nM
Second compound 0.0316 µM, first compound 0.00949 µM
  viability, T/C: 68.9%
Second compound 0.0316 µM, first compound 0.03 µM
  viability, T/C: 69.2%
Second compound 0.0316 µM, first compound 0.0949 µM
  viability, T/C: 66%
Second compound 0.0316 µM, first compound 0.3 µM
  viability, T/C: 70.9%
Second compound 0.0316 µM, first compound 0.949 µM
  viability, T/C: 37.6%
Second compound 0.0316 µM, first compound 3 µM
  viability, T/C: 28.6%
Second compound 0.1 µM, first compound 0.00949 µM
  viability, T/C: 83.8%
Second compound 0.1 µM, first compound 0.03 µM
  viability, T/C: 73.6%
Second compound 0.1 µM, first compound 0.0949 µM
  viability, T/C: 64.9%
Second compound 0.1 µM, first compound 0.3 µM
  viability, T/C: 67.6%
Second compound 0.1 µM, first compound 0.949 µM
  viability, T/C: 40.3%
Second compound 0.1 µM, first compound 3 µM
  viability, T/C: 19.5%
Second compound 0.316 µM, first compound 0.00949 µM
  viability, T/C: 90%
Second compound 0.316 µM, first compound 0.03 µM
  viability, T/C: 76.5%
Second compound 0.316 µM, first compound 0.0949 µM
  viability, T/C: 61.1%
Second compound 0.316 µM, first compound 0.3 µM
  viability, T/C: 64%
Second compound 0.316 µM, first compound 0.949 µM
  viability, T/C: 41%
Second compound 0.316 µM, first compound 3 µM
  viability, T/C: 31%
Second compound 1 µM, first compound 0.00949 µM
  viability, T/C: 96.6%
Second compound 1 µM, first compound 0.03 µM
  viability, T/C: 73.4%
Second compound 1 µM, first compound 0.0949 µM
  viability, T/C: 53%
Second compound 1 µM, first compound 0.3 µM
  viability, T/C: 51.5%
Second compound 1 µM, first compound 0.949 µM
  viability, T/C: 51.7%
Second compound 1 µM, first compound 3 µM
  viability, T/C: 22.4%
Second compound 3.16 µM, first compound 0.00949 µM
  viability, T/C: 76.8%
Second compound 3.16 µM, first compound 0.03 µM
  viability, T/C: 76.2%
Second compound 3.16 µM, first compound 0.0949 µM
  viability, T/C: 64.7%
Second compound 3.16 µM, first compound 0.3 µM
  viability, T/C: 48.9%
Second compound 3.16 µM, first compound 0.949 µM
  viability, T/C: 40%
Second compound 3.16 µM, first compound 3 µM
  viability, T/C: 37.1%
Second compound 10 µM, first compound 0.00949 µM
  viability, T/C: 74.6%
Second compound 10 µM, first compound 0.03 µM
  viability, T/C: 52.1%
Second compound 10 µM, first compound 0.0949 µM
  viability, T/C: 72.8%
Second compound 10 µM, first compound 0.3 µM
  viability, T/C: 50%
Second compound 10 µM, first compound 0.949 µM
  viability, T/C: 43.4%
Second compound 10 µM, first compound 3 µM
  viability, T/C: 25.3%
